Where a name gives a salt, the structure may show the parent alone. Read-outs that look alike come from different tables or passages of the source.

Experimental findings from patent US20090105278A1, “Selective inhibitors of human corticosteroid syntheses” (Universitat Des Saarlandes, priority 2004, published 2009) are described below.

For one experiment, the target named is T1, human placental CYP19 (Homo sapiens, UniProt P11511).
T1 construct: The enzyme was obtained from the microsome fraction of fresh human placenta; from tissue; host or cells: human placenta, microsomal fraction
T1 sequence (P11511 1-503): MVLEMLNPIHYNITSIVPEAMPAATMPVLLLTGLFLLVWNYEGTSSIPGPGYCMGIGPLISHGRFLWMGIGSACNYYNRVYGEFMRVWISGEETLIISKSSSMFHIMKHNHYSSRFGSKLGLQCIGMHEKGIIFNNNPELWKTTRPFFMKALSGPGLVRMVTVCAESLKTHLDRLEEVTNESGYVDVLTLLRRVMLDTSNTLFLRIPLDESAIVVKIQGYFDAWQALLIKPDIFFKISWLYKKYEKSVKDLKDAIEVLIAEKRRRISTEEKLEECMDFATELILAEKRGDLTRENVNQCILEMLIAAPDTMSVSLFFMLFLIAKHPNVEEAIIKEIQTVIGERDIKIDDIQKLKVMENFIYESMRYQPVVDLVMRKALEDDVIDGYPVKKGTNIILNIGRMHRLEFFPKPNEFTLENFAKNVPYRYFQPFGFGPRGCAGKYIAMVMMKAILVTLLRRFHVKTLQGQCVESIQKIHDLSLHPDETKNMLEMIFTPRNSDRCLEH
Briefly: IC50 of CYP19 (human placental microsomes). The experiment is classed as biochemical. How it is done: The isolated microsomes were suspended in a minimum volume of phosphate buffer (0.05 M; pH 7.4; […]). In addition, DTT (10 mM) and EDTA (1 mM) were added to protect the enzyme from degradation reactions.
[…] […] The compounds to be tested were dissolved in DMSO and diluted with buffer to the desired concentration. The final DMSO concentration of the control and inhibitor incubations was about 20%. Each vessel was preincubated in a water bath at 30° C. for 5 min. The reaction was started by adding the microsomal protein (0.1 mg). The total volume of each mixture was 200 μl. After 14 min, the reaction was quenched by adding 200 μl of ice cold 1 mM HgCl2 solution. Two hundred microliters of a 2% aqueous suspension of dextran-coated charcoal, DCC) was added for absorbing the steroids, and the vessels were shaken for 20 min. Thereafter, the charcoal was centrifuged off at 1500 g for 5 min. The radioactive water present in the supernatant (^3H2O) was assayed by scintillation measurement using an LKB-Wallac beta counter. The calculation of the IC50 values was effected by a semilogarithmic plot of the percent inhibition against the inhibitor concentration.

The target of a further experiment is T2, human CYP11B2 (Homo sapiens, UniProt P19099).
T2 sequence (P19099 25-503): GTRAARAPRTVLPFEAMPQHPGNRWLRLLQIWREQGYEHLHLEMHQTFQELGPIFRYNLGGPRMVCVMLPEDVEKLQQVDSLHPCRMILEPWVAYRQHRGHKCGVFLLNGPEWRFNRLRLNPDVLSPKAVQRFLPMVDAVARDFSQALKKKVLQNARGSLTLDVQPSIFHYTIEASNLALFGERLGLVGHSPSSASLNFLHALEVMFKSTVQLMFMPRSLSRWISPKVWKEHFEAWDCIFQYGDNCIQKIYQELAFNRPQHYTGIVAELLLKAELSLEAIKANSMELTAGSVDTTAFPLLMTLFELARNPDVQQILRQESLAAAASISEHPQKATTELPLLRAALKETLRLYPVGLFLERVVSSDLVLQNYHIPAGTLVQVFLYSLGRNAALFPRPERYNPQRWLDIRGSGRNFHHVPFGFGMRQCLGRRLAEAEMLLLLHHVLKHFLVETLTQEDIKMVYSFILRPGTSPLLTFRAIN
Nature of the experiment: Screening test in transgenic fission yeast (S. pombe PE1) expressing human CYP11B2. It counts as cell-based. Also on record: expressed in transfected cells. How it is done: 492.5 μl of this cell suspension was admixed with 5 μl of inhibitor solution (50 μM of the compound to be tested in ethanol or DMSO) and incubated at 32° C. for 15 min. Controls were admixed with 5 μl of ethanol. […] The test was quenched by extracting the sample with 500 μl of EtOAc. After centrifugation (10,000 g, 2 min), the EtOAc phase was removed and evaporated to dryness. […] The reaction of the substrate to form corticosterone was analyzed by HPTLC (see below).
The quantification of the spots for the substrate deoxycorticosterone and the products corticosterone (and, if detectable, 18-hydroxycorticosterone and aldosterone) was effected with the related evaluation program AIDA. […] The calculation of the conversion rate was effected according to equation 1.
The plate was developed twice with the mobile solvent chloroform:methanol:water (300:20:1). Unlabeled 11-deoxycorticosterone and corticosterone were applied as a reference for the CYP11B1 reaction. For the CYP11B2 reaction, 11-deoxycorticosterone, corticosterone, 18-hydroxycorticosterone and aldosterone were used as references. The detection of the unlabeled references was effected at 260 nm. Subsequently, imaging plates (BAS MS2340, for ^14C samples, Raytest, Straubenhardt, Germany) were exposed to the HPTLC plates for 48 h. The imaging plates were scanned with the phosphoimager system Fuji FLA 3000 (Raytest, Straubenhardt, Germany), and the steroids were quantified.

[1] abbreviates: human placental CYP19, testosterone substrate 2.5 μM.
[2] abbreviates: S. pombe cells which express human CYP11B2, deoxycorticosterone substrate 100 nM, inhibitor 500 nM.
The mark [3] stands for this setting: S. pombe cells which express human CYP11B2, deoxycorticosterone substrate 100 nM, inhibitor 500 nM, read-out: % Inhibition human hCYP11B2.
Setting [4] is: read-out: % Inhibition human hCYP11B2.

By IC50 is commonly meant the midpoint of a concentration-inhibition curve. Low values mean higher potency, high ones lower potency. In the case of “5-[(E)-(6-Chloro-3,4-dihydronaphth-1(2H)-ylidene)methyl]-1H-imidazolium chloride [Compound 46a]”, on human placental CYP19 (setting [1]), the half-inhibitory concentration (IC50) is 0.12 µM. For the same molecule, the “% Inhibition human hCYP11B2” value at human CYP11B2 (setting [2]) is recorded as 48%. For “5-[(Z)-3,4-Dihydronaphth-1(2H)-ylidenemethyl]-1H-imidazolium oxalate [Compound 41b]”, in that order: 0.19 µM and 82%. With “5-[(Z)-(5-Bromo-2,3-dihydro-1H-indene-1-ylidene)methyl]-1H-imidazolium oxalate [Compound 49b]”, at human CYP11B2 (setting [2]), the “% Inhibition human hCYP11B2” value was 76%. The molecule “5-[(Z)-(5-Chloro-2,3-dihydro-1H-indene-1-ylidene)methyl]-1H-imidazolium oxalate [Compound 48b]” showed an IC50 at human placental CYP19 (setting [1]) of 0.039 µM. The “% Inhibition human hCYP11B2” value at human CYP11B2 (setting [2]) was determined as 80%. The term inhibition denotes the relative decrease from the control value, in per cent. `C(=C1/CCc2ccccc21)/c1cccnc1` [Compound 1a, 3-[(E)-2,3-Dihydro-1H-indane-1-ylidenemethyl]pyridine Hydrochloride] showed an IC50 against human placental CYP19 (setting [1]) of 2.04 µM. Moreover, on human CYP11B2 (setting [3]), the inhibition at 0.5 µM was 82%.

With `C(=C1\CCc2ccccc21)/c1cccnc1.Cl` [Compound 1b, 3-[(Z)-2,3-Dihydro-1H-indane-1-ylidenemethyl]pyridine Hydrochloride], on human placental CYP19, the IC50 was 3.55 µM. Further, the “% Inhibition human hCYP11B2” value on human CYP11B2 (setting [2]) was determined as 83%.

`C(=C1\CCc2ccccc21)/c1ccncc1` [Compound 2b, 4-[(Z)-2,3-Dihydro-1H-indane-1-ylidenemethyl]pyridine oxalate] gave an IC50 against human placental CYP19 (setting [1]) of 12.7 µM. Molecule `C(=C1/CCCc2ccccc21)/c1cccnc1.Cl` [Compound 3a, 3-[(E)-3,4-Dihydronaphthalene-1(2H)-ylidenemethyl]pyridine Hydrochloride] returned an IC50 against human placental CYP19 (setting [1]) of 6.58 µM. For the same molecule, the inhibition at 0.5 µM on human CYP11B2 (setting [3]) is 70%. As for `C(=C1\CCCc2ccccc21)/c1cccnc1.Cl` [Compound 3b, 3-[(Z)-3,4-Dihydronaphthalene-1(2H)-ylidenemethyl]pyridine Hydrochloride], the half-inhibitory concentration (IC50) on human placental CYP19 (setting [1]) worked out at 3.79 µM. The inhibition at 0.5 µM on human CYP11B2 (setting [3]) was determined as 68%. Molecule `Fc1ccc2c(c1)CC/C2=C\c1cccnc1` [Compound 5a, 3-[(E)-(5-Fluoro-2,3-dihydro-1H-indane-1-ylidene)methyl]pyridine Hydrochloride] gave an IC50 against human placental CYP19 (setting [1]) of 2.54 µM. In addition, the inhibition at 0.5 µM on human CYP11B2 (setting [3]) turned out to be 88%. As for `Fc1ccc2c(c1)CC/C2=C/c1cccnc1` [Compound 5b, 3-[(Z)-(5-Fluoro-2,3-dihydro-1H-indane-1-ylidene)methyl]pyridine Hydrochloride], the half-maximal inhibitory concentration (IC50) against human placental CYP19 (setting [1]) came to 2.49 µM. Besides, the results for the inhibition at 0.5 µM at human CYP11B2 (setting [4]) and on human CYP11B2 (read-out: S. pombe PE1 CYP11B2 DOC % inhibition) were 89% and 88.6%, respectively. `Fc1ccc2c(c1)CC/C2=C\c1ccncc1` [Compound 6a, 4-[(E)-(5-Fluoro-2,3-dihydro-1H-indane-1-ylidene)methyl]pyridine Hydrochloride]: it took 1.55 µM to reach half-maximal inhibition against human placental CYP19 (setting [1]) (IC50). For the same molecule, the inhibition at 0.5 µM on human CYP11B2 (setting [4]) worked out at 37%. For `Fc1ccc2c(c1)CC/C2=C/c1ccncc1` [Compound 6b, 4-[(Z)-(5-Fluoro-2,3-dihydro-1H-indane-1-ylidene)methyl]pyridine Hydrochloride], in that order: 0.8 µM and 77%. Regarding `Clc1ccc2c(c1)CC/C2=C\c1cccnc1` [Compound 7a, 3-[(E)-(5-Chloro-2.3-dihydro-1H-indane-1-ylidene)methyl]pyridine Hydrochloride], it took 4.26 µM to reach half-maximal inhibition on human placental CYP19 (setting [1]) (IC50). In addition, the inhibition at 0.5 µM at human CYP11B2 (setting [3]) amounted to 75%.

Molecule `Clc1ccc2c(c1)CC/C2=C/c1cccnc1` [Compound 7b, 3-[(Z)-(5-Chloro-2,3-dihydro-1H-indane-1-ylidene)methyl]pyridine Hydrochloride] gave an IC50 at human placental CYP19 (setting [1]) of 4.05 µM. In addition, the inhibition at 0.5 µM at human CYP11B2 (setting [3]) worked out at 68%. With `Clc1ccc2c(c1)CC/C2=C\c1ccncc1` [Compound 8a, 4-[(E)-(5-Chloro-2,3-dihydro-1H-indane-1-ylidene)methyl]pyridine Hydrochloride], at human placental CYP19 (setting [1]), the IC50 worked out at 5.43 µM. The inhibition at 0.5 µM on human CYP11B2 (setting [4]) was determined as 38%. On to `Brc1ccc2c(c1)CC/C2=C\c1cccnc1` [Compound 9a, 3-[(E)-(5-Bromo-2,3-dihydro-1H-indane-1-ylidene)methyl]pyridine Hydrochloride], for which, at human placental CYP19 (setting [1]), the concentration for half-maximal inhibition (IC50) is 7.83 µM. Besides, the inhibition at 0.5 µM at human CYP11B2 (setting [3]) was 60%. As for `Brc1ccc2c(c1)CC/C2=C/c1cccnc1` [Compound 9b, 3-[(Z)-(5-Bromo-2,3-dihydro-1H-indane-1-ylidene)methyl]pyridine Hydrochloride], the IC50 at human placental CYP19 (setting [1]) is 7.37 µM. Besides, at human CYP11B2 (setting [3]), the inhibition at 0.5 µM worked out at 58%. For `Brc1ccc2c(c1)CC/C2=C\c1ccncc1` [Compound 10a, 4-[(E)-(5-Bromo-2,3-dihydro-1H-indane-1-ylidene)methyl]pyridine Hydrochloride], the inhibition at 0.5 µM on human CYP11B2 (setting [4]) is 17%. Take `COc1ccc2c(c1)CC/C2=C\c1cccnc1` [Compound 11a, 3-[(E)-(5-Methoxy-2,3-dihydro-1H-indane-1-ylidene)methyl]pyridine Hydrochloride]: at human placental CYP19 (setting [1]), it took 4.31 µM to reach half-maximal inhibition (IC50). Also, on human CYP11B2 (setting [3]), the inhibition at 0.5 µM came to 79%.

For `COc1ccc2c(c1)CC/C2=C/c1cccnc1` [Compound 11b, 3-[(Z)-(5-Methoxy-2,3-dihydro-1H-indane-1-ylidene)methyl]pyridine Hydrochloride], at human placental CYP19 (setting [1]), the midpoint of inhibition, the IC50, lay at 5.57 µM. Besides, the inhibition at 0.5 µM on human CYP11B2 (setting [3]) was found to be 81%. For `COc1ccc2c(c1)CCC/C2=C\c1cccnc1` [Compound 13a, 3-[(E)-(6-Methoxy-3,4-dihydronaphthalene-1(2H)-ylidene)methyl]pyridine Hydrochloride], in that order: 1.13 µM and 52%. For `COc1ccc2c(c1)CCC/C2=C/c1cccnc1.Cl` [Compound 13b, 3-[(Z)-(6-Methoxy-3,4-dihydronaphthalene-1(2H)-ylidene)methyl]pyridine Hydrochloride], in that order: 4 µM and 53%.

Take `C(=C1/CCc2ccccc21)/c1cnc[nH]1` [Compound 42a, 5-[(E)-2,3-Dihydro-1H-indane-1-ylidenemethyl]-1H-imidazole]: the inhibition at 0.5 µM on human CYP11B2 (setting [3]) was 77%. Still for that read-out and setting: next, `C(=C1\CCc2ccccc21)/c1cnc[nH]1` [Compound 42b, 5-[(Z)-2,3-Dihydro-1H-ind-1-ylidenemethyl]-1H-imidazolium oxalate]: 81%; `Brc1ccc2c(c1)CC/C2=C\c1cnc[nH]1.Cl` [Compound 49a, 5-[(E)-(5-Bromo-2,3-dihydro-1H-indene-1-ylidene)methyl]-1H-imidazolium chloride]: 68%.
